{"source": "patent US20110027300A1", "about": "“Identification of a novel cysteine-rich cell penetrating peptide” (Max-Planck-Gesellschaft zur Forderung der Wissenschaften …, priority 2008, published 2011)", "key": {"[1]": {"tested_on": "different cell types and mouse blastocysts", "conditions": "cited from earlier work"}, "NIH 3T3 fibroblasts [2]": {"tested_on": "NIH 3T3 fibroblasts", "assay": "Uptake assay: cell-related FITC fluorescence corrected for cell number", "format": "cell-based, mouse", "conditions": "for cellular uptake / internalization efficiency: K(FITC)-labelled peptide", "experimental": "NIH 3T3 mouse fibroblast cells were cultured as a monolayer at 37° C. with 10% CO2 in Dulbecco's Modified Eagle's Medium (DMEM) supplemented with 10% fetal bovine serum, 4 mM L-glutamine, 100 μg/mL streptomycin and 100 U/mL penicillin (all purchased from Biochrom AG, Germany). Cells were passaged by trypsinization with trypsin/EDTA 0.05/0.02% (w/v) in phosphate-buffered saline (PBS; Biochrom AG, Germany) every second to third day.\n(§1) Internalization experiments on cells were performed in 96 well microplates by inoculation of NIH 3T3 fibroblasts (1×10^4 cells/well). After 24 h, cells were incubated with 2.5 μM of different peptide solutions in DMEM for additional 18 h at 37° C. with 10% CO2. Before washing, cells were incubated with Bisbenzimid 33342 (Hoechst 33342), a nuclear stain, in order to estimate the cell number. Cells were washed with Hanks' buffered saline (Biochrom AG, Germany) and extracellular fluorescence was quenched by incubating with cold trypan blue 0.05% (w/v) in phosphate-buffered saline (Biochrom AG, Germany) for 3 min followed by repeated washes with Hanks' buffered saline. Cell-related FITC fluorescence (Ex 485 nm/Em 530 nm) and cell number (Ex 346 nm/Em 460 nm) was evaluated in a multiplate reader. Experiments were run at least three times for each peptide with six replicates. Statistical analysis was performed by Student's t-test or ANOVA with Dunnett's post test. P values <0.05 were considered significant. The results are depicted in FIGS. 1 to 3."}, "[3]": {"tested_on": "differentiated N18 neuroblastoma cells", "assay": "Internalization in additional cell lines", "format": "cell-based, mouse", "conditions": "differentiated N18, serum reduced from 10% to 1.25%", "experimental": "(§2) C6 rat glioma N18 mouse neuroblastoma (differentiated, undifferentiated) CCL-11 mouse fibrosarcoma Shin3 human ovarian carcinoma PANC1 human pancreatic carcinoma Primary murine bone marrow cells\n(§3) Cells were cultivated using their respective optimized growth medium and passaged as described. Differentiation was induced in N18 cells by stepwise reduction of serum in the growth medium from 10% to 1.25%.\nas §1, with “P values <0.05 were considered significant. The results are depicted in FIGS. 1 to 3.” left out"}, "[4]": {"assay": "Peptide NMR in water, solution state", "format": "physicochemical", "experimental": "Sample solutions were prepared at pH 4-4.5 and pH 6.5-7 in water. At pH 4.5 standard set of 2D homonuclear experiments (2D-ipCOSY, 2D-TOCSY, two 2D-NOESY spectra at different mixing times (100 and 200 ms)) and heteronuclear experiments (^13C-HSQC and ^15N-HSQC) were performed. The sample yielded well resolved spectra consistent with a monomeric peptide. Using these spectra it was possible to complete a full assignment of all non-exchangeable proton resonances, plus the carbon and nitrogen resonances.\nWhereas at pH 6.5, broadening of lines, probably due to the formation of high molecular weight aggregates, makes it difficult to assign individual resonances. Thus, the presence or absence of disulfide bridges in this sample could not be deduced.\nNMR experiments were carried out at 600 MHz on a Bruker Avance III spectrometer."}, "[5]": {"tested_on": "Shin3 human ovarian carcinoma", "assay": "Internalization in additional cell lines", "format": "cell-based", "experimental": "as §2, §3, §1\n(§4) The same cells were subjected to microscopic studies without fixation using a Zeiss Axiovert 200 M (Germany) microscope with a LD Plan NeoFluor 40× objective. The imaging conditions were kept constant for the observation of different samples. Cellular localization and distribution of the peptide was observed by irradiating with blue light (470/40 nm) and observing at 525/50 nm. The bright punctate and encapsulated appearing FITC fluorescence was categorized as vesicular uptake while diffused fluorescence appeared to be distributed in the entire cell with similar intensity. […] Also phase contrast images with DIC of the same area were made to observe if the cells maintain their normal morphology in the presence of peptides."}, "[6]": {"tested_on": "N18 mouse neuroblastoma (undifferentiated)", "assay": "Internalization in additional cell lines", "format": "cell-based", "experimental": "as §2, §3, §1, §4"}, "C6 rat glioma": {"tested_on": "C6 rat glioma", "assay": "Internalization in additional cell lines", "format": "cell-based", "experimental": "as §2, §3, §1, §4"}, "[7]": {"tested_on": "CCL-11 mouse fibrosarcoma", "assay": "Internalization in additional cell lines", "format": "cell-based", "experimental": "as §2, §3, §1, §4"}, "[8]": {"tested_on": "PANC1 human pancreatic carcinoma", "assay": "Internalization in additional cell lines", "format": "cell-based", "experimental": "as §2, §3, §1, §4"}, "NIH 3T3 fibroblasts [9]": {"tested_on": "NIH 3T3 fibroblasts", "assay": "Fluorescence microscopy of cellular localization and distribution of the peptide", "format": "cell-based, mouse", "conditions": "for intracellular fluorescence distribution (vesicular / diffused cytosolic): K(FITC)-labelled peptide, 2.5 μM, live cells without fixation", "excerpt": "as §4"}, "[10]": {"tested_on": "Primary murine bone marrow cells", "assay": "Internalization in additional cell lines", "format": "cell-based, mouse", "experimental": "as §2\nBone marrow cells were extracted from hind legs of sacrificed mice and were kept in supplemented IMDM medium.\nas §1, with “3. […]” for “3.”"}, "cells": {"tested_on": "cells", "conditions": "cited from earlier work"}}, "note": "Read-outs that look alike come from different tables or passages of the source. Square brackets hold non-standard residues; d marks the D form. Ends that are not written are not given here. K(FITC) = lysine labelled with FITC"}
{"substance": "Crotamine", "values": [{"measurement": "intracellular localization", "setting": "[1]; applied before cell division, after the telophase", "result": "mainly localized in the cytoplasm"}, {"measurement": "intracellular localization", "setting": "[1]", "result": "localize preferably in the nucleus"}, {"measurement": "non-toxic concentration", "setting": "[1]", "result": "up to 1 μM"}, {"measurement": "cell penetration", "setting": "[1]; in vitro", "result": "penetrating into different cell types and mouse blastocysts"}]}
{"substance": "Ac-tccgtgaacggc-K(FITC)-CRWRWKCCKK-CONH2 (chain 1 Ac-[code t][code c][code c][code g][code t][code g][code a][code a][code c][code g][code g][code c]; chain 2 {K(FITC)}-CRWRWKCCKK-NH2; not fully specified (C-terminus); cysteine pairing not given here; also: chain 1 is a PNA strand joined via Lys(FITC) to peptide chain 2) [PNA-CyLoP-1 fusion]", "values": [{"measurement": "uptake compared to peptide 23 (CyLoP-1)", "setting": "NIH 3T3 fibroblasts [2]; 2.5 μM, 18 h, 37° C.", "result": "lowest intracellular fluorescence"}]}
{"substance": "K (FITC)-CRWRWKCCKK ({K(FITC)}-CRWRWKCCKK; cysteine pairing not given here) [peptide 23]", "values": [{"measurement": "uptake", "setting": "[3]", "result": "strongly reduced"}, {"measurement": "delivery efficiency compared with penetratin", "setting": "NIH 3T3 fibroblasts [2]; 2.5 μM", "result": "better taken up by cells"}, {"measurement": "cellular uptake / internalization efficiency", "setting": "NIH 3T3 fibroblasts [2]; 2.5 μM, 18 h, 37° C.", "result": "competently taken up by cells"}, {"measurement": "uptake and cytosolic diffused fluorescence on addition of Dithiothreitol (DTT)", "setting": "NIH 3T3 fibroblasts [2]; excess DTT in the incubation medium", "result": "reduced the uptake as well as the cytosolic diffused fluorescence"}, {"measurement": "concentration at which efficient cellular uptake and cytosolic location along with vesicular distribution is shown", "setting": "NIH 3T3 fibroblasts [2]; subtoxic concentrations", "result": "< 2.5", "unit": "µM"}, {"measurement": "solution state of the peptide", "setting": "[4]; pH 4.5 in water", "result": "unstructured and in a reduced state"}, {"measurement": "solution state of the peptide", "setting": "[4]; pH 6.5 in water", "result": "aggregation"}, {"measurement": "uptake behaviour and fluorescence distribution", "setting": "[5]", "result": "comparable uptake behaviour with vesicular as well as diffused cytosolic fluorescence distribution"}, {"measurement": "uptake behaviour and fluorescence distribution", "setting": "[6]", "result": "comparable uptake behaviour with vesicular as well as diffused cytosolic fluorescence distribution"}, {"measurement": "uptake behaviour and fluorescence distribution", "setting": "C6 rat glioma", "result": "comparable uptake behaviour with vesicular as well as diffused cytosolic fluorescence distribution"}, {"measurement": "uptake behaviour and fluorescence distribution", "setting": "[7]", "result": "comparable uptake behaviour with vesicular as well as diffused cytosolic fluorescence distribution"}, {"measurement": "uptake behaviour and fluorescence distribution", "setting": "[8]", "result": "comparable uptake behaviour with vesicular as well as diffused cytosolic fluorescence distribution"}, {"measurement": "intracellular fluorescence distribution (vesicular / diffused cytosolic)", "setting": "NIH 3T3 fibroblasts [9]", "result": "endosomal as well as cytoplasmic fluorescence distribution"}, {"measurement": "cytosolic distribution at low concentration", "setting": "NIH 3T3 fibroblasts [9]; concentration as low as 2.5 μM", "result": "retaining the cytosolic distribution"}, {"measurement": "uptake behaviour and fluorescence distribution", "setting": "[10]", "result": "comparable uptake behaviour with vesicular as well as diffused cytosolic fluorescence distribution"}]}
{"substance": "K (FITC)-KMDCRWRWKCCKK ({K(FITC)}-KMDCRWRWKCCKK; cysteine pairing not given here) [peptide 1, reference compound]", "values": [{"measurement": "cellular uptake / internalization efficiency", "setting": "NIH 3T3 fibroblasts [2]; 2.5 μM, 18 h, 37° C.", "result": "efficient CPP"}, {"measurement": "internalization into cells", "setting": "cells", "result": "able to internalize into cells"}, {"measurement": "intracellular fluorescence distribution (vesicular / diffused cytosolic)", "setting": "NIH 3T3 fibroblasts [9]", "result": "cytoplasmic diffusion"}]}
